Test results as given in patent publication US20250002527A1, “STEROID COMPOUND AND CONJUGATE THEREOF” (DUALITY BIOLOGICS (SUZHOU) CO., LTD., priority 2021, published 2025).
Several values for one entry are separate records, joined by “and”; a condition that tells them apart may be missing. Equal values may be shown once.

What was measured:
GR = biological target: T1, GR (Homo sapiens, UniProt P04150); assay: GR luciferase reporter gene elution experiment; assay type: cell-based; parameters: concentration or dose not given beside the values; details: then 24 hours
T1 construct: expressed in transfected cells; host or cells: HEK293
T1 sequence (P04150 1-777): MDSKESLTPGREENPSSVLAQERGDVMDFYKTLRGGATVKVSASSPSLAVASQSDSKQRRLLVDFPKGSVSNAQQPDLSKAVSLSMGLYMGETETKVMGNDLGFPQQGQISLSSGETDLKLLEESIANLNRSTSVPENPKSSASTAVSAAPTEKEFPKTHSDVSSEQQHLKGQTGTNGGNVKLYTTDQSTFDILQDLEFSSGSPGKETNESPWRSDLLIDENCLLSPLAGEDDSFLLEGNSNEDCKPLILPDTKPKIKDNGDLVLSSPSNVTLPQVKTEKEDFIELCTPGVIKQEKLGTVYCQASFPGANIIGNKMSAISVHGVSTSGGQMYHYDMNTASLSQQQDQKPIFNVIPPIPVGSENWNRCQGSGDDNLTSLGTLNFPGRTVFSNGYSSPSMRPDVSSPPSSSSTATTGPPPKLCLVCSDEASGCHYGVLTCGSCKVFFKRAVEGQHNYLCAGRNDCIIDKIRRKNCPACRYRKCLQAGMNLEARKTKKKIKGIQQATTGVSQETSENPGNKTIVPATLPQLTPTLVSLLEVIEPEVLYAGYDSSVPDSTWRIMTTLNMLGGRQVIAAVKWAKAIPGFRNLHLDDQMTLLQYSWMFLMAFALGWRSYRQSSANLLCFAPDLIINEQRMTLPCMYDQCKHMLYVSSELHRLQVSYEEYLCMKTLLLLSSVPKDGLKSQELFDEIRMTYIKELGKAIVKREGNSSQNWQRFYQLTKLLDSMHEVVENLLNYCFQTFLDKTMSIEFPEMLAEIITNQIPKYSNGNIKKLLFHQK
Method: The compounds of the present application were evaluated for their ability to continue activation upon binding to GR.
(§1) HEK293 cells were cultured in DMEM+10% FBS medium in a carbon dioxide incubator humidified at 37° C. at 5% carbon dioxide.
(§2) • 1) HEK293 cells were trypsinized, and the HEK293 cell resuspension was adjusted to 200,000 cell/mL in medium (96 well plate: 100 μL/well). • 2) Transfection reagent mixtures were prepared according to the table below, mixed well and left at room temperature for 20 minutes.
(§3) • 3) The prepared transfection mixtures were added to 10 mL of the cell density-adjusted resuspension, mixed well by turning the mixtures upside down, and seeded into a 96-well plate at a volume of 100 μL/well. • 4) The 96-well plate was incubated in a humidified incubator at 37° C. and 5% carbon dioxide for 24 hours.
(§4) The test plate was detected using the Dual-Glo Luciferase Assay System kit from Promega, and the fluorescence signal of Firefly Luciferase and the fluorescence signal of Renilla Luciferase were read using Enspire, respectively.
• 1) The final measurement value was a normalized value “F/R” obtained by dividing the Firefly Luciferase fluorescent signal by the Renilla Luciferase fluorescent signal. • 2) The data were copied and pasted into Excel, and the activation rate was obtained through an equation.
[formula] • 3) The data were imported into MS Excel and subjected to curve fitting by using XLFit excel add-in version 5.4.0.8 to obtain an EC50 value.
(§5) Y is the agonism and X is the concentration of the compound.

MR = biological target: T2, MR (Homo sapiens, UniProt P08235); assay: MR luciferase reporter gene experiment; assay type: cell-based; details: HEK293 transfected with pBIND-MR
T2 construct: expressed in transfected cells; host or cells: HEK293
T2 sequence (P08235 1-984): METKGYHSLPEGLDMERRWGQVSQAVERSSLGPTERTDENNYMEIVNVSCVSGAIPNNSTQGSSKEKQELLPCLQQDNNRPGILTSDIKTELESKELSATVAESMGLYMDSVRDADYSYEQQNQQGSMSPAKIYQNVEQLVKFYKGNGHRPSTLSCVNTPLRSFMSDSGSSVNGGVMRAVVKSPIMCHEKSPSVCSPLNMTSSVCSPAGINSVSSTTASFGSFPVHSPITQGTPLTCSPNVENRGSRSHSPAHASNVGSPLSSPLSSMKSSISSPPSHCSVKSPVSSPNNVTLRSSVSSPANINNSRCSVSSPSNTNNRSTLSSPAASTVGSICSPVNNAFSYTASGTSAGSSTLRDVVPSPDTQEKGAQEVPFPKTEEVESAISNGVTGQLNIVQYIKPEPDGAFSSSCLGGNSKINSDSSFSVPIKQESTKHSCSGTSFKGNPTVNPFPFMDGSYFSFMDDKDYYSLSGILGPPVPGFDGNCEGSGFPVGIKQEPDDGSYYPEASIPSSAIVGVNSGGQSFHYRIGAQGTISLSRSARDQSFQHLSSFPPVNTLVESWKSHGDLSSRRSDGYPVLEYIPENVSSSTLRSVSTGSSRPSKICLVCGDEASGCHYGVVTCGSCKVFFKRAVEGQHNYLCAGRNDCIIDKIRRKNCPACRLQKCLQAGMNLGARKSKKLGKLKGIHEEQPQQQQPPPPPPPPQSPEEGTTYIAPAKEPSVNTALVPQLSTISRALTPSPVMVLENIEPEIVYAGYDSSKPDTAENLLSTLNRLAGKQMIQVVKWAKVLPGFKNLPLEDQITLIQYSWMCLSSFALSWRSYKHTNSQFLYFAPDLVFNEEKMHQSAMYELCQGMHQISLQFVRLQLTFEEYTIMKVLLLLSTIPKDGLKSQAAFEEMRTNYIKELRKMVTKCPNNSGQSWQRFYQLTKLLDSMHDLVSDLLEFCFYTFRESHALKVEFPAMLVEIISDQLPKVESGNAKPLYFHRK
Method: as §1, §2, §3, §4, §5

## C[C@]12C=CC(=O)C=C1CC[C@@H]1[C@@H]2[C@@H](O)C[C@@]2(C)[C@H]1C[C@H]1O[C@@H](c3ccc(Cc4ccc(CO)cc4)cc3)O[C@]12C(=O)CO [Compound 4]
GR; wash off after 15 min
  Wash off time (Rate of activation %) 15 min: 127.6% and 129.6%
GR; wash off after 30 min
  Wash off time (Rate of activation %) 30 min: 127.0% and 128.5%
GR; wash off after 1 h
  Wash off time (Rate of activation %) 1 h: 164.6% and 106.6%
GR; wash off after 2 h
  Wash off time (Rate of activation %) 2 h: 131.3% and 124.8%
GR; wash off after 4 h
  Wash off time (Rate of activation %) 4 h: 139.9% and 125.3%
MR
  EC50: > 1000 nM
